Test results reported in patent US6313177A, “D-mannitol derivatives as HIV aspartyl protease inhibitors” (Pharmacor Inc., priority 1999, dated 2001).
Where two headings read alike, the source gives them in different places.

Biological target: T1, recombinant HIV-1 protease (Human immunodeficiency virus type 1 group M subtype B, UniProt P04585)
T1 construct: recombinant HIV-1 protease; purchased Bachem Bioscience
Test: Fluorometric (FRET) enzymatic assay for the inhibition constant (Ki) against the HIV protease
Format: biochemical
Source text: Enzymatic Assay for Determining the Inhibition Constant (Ki) of Synthetic Compounds Prepared Against the HIV Protease
This is a fluorometric assay based on the cleavage by protease of a substrate carrying a donor group (EDANS, excitation at 340 nm and emission at 490 nm) and an acceptor group (DABCYL) on each side of the cleavage site, interacting together through fluorescence resonance energy transfer (FRET). Cleavage of the substrate by protease stops energy exchange between the two groups, resulting in a time-dependent increase in fluorescence intensity that is linearly related to the extent of substrate hydrolysis.
The enzymatic assay is done at 30° C. in a spectrophotometer microcuvet, in a total volume of 400 μL. The apparatus used for readings is a UV-visible Cary 1 spectrophotometer made by Varian. The reaction is run first in the absence of protease inhibitors for 2 min, using 355 μL of buffer at pH 4.7 (sodium acetate 100 mM, NaCl 1 M, EDTA 1 mM, DTT 1 mM, dimethylsulfoxide 10%, and BSA 1 mg/mL), 40 μL of substrate H-2930 from Molecular Probes (final concentration 10 μM) and 5 μL of recombinant HIV-1 protease (final concentration 18.3 nM) purchased from Bachem Bioscience. Fluorescence readings at […] are taken continuously during the reaction, allowing determination of the enzyme's initial velocity (v0). At the end of the 2 min incubation, the potential inhibitor at a defined concentration in a volume of 2 μL is added to the reaction, and fluorescence readings are taken for another 2 min, allowing determination of enzyme velocity (vi) in the presence of the inhibitory compound. Several concentrations of the putative inhibitors are tested in the assay. After calculation of vo and vi, the inhibition constant (Ki) of the compound is determined using the equation of Henderson: [formula]
and [I]=inhibitor concentration, [S ]=substrate concentration, Km=Michaelis-Menten constant, Kiapp =apparent Ki
Note that the Michaelis-Menten constant of HIV protease is determined by running the assay without inhibitors, using several concentrations of substrate, and plotting the results as a Cornish-Bowden graph with the ratio substrate concentration/velocity as the ordinate and substrate concentration as the abscissa.

[1] = Table 1, benzylated D-mannitol derivatives, pH 4.7, 30° C., substrate 10 μM, protease 18.3 nM
[2] = Table 2, tetra-substituted D-mannitol derivatives, pH 4.7, 30° C., substrate 10 μM, protease 18.3 nM
[3] = Table 3, di- and tri-substituted D-mannitol derivatives, pH 4.7, 30° C., substrate 10 μM, protease 18.3 nM

Row | Compound | Ki [1] [nM] | also measured
1 | OCc1ccc(CO[C@H](COCc2ccccc2)[C@@H](O)[C@H](O)[C@@H](COCc2ccccc2)OCc2ccc(CO)cc2)cc1 [Compound 45, 1,6-di-O-benzyl-2,5-di-O-(4-hydroxymethylbenzyl)-D-mannitol] |  | Ki: 10000 nM
2 | O[C@@H]([C@H](O)[C@@H](COCc1ccc(F)cc1)OCc1ccc(F)cc1)[C@@H](COCc1ccc(F)cc1)OCc1ccc(F)cc1 [Compound 52, 1,2,5,6-tetra-O-(4-fluorobenzyl)-D-mannitol] |  | Ki: 1600 nM
3 | O[C@@H]([C@H](O)[C@@H](COCc1c(F)cccc1F)OCc1ccc(F)cc1)[C@@H](COCc1c(F)cccc1F)OCc1ccc(F)cc1 [Compound 39, 1,6-di-O-(2,6-difluorobenzyl)-2,5-di-O-(4-fluorobenzyl)-D-mannitol] |  | Ki: 330 nM
4 | O[C@@H]([C@H](O)[C@@H](COCc1ccccc1F)OCc1ccc(F)cc1)[C@@H](COCc1ccccc1F)OCc1ccccc1 [Compound 62, 1,6-di-O-(2-fluorobenzyl)-2-O-benzyl-5-O-(4-fluorobenzyl)-D-mannitol] | 220 | 
5 | O[C@H]([C@@H](O)[C@H](COCc1cccs1)OCc1ccccc1)[C@H](COCc1cccs1)OCc1ccccc1 (stereo in doubt) [Compound 92, 1,6-di-O-(2-thienylmethyl)-2,5-di-O-benzyl-L-mannitol] |  | Ki [2]: 800 nM
6 | C=CCOC[C@@H](OCC=C)[C@@H](O)[C@H](O)[C@@H](COCC=C)OCC=C [Compound 78, 1,2,5,6-tetra-O-allyl-D-mannitol] |  | Ki [2]: 190000 nM
7 | O[C@@H]([C@H](O)[C@@H](COCc1cccs1)OCc1ccc(F)cc1)[C@@H](COCc1cccs1)OCc1ccc(F)cc1 [Compound 93, 1,6-di-O-(2-thienylmethyl)-2,5-di-O-(4-fluorophenylmethyl)-D-mannitol] |  | Ki [2]: 400 nM
8 | O[C@@H]([C@H](O)[C@@H](COCc1ccccc1)OCc1ccccc1)[C@H](O)COCc1ccccc1 [Compound 98, 1,2,6-tri-O-benzyl-D-mannitol] |  | Ki [3]: 33000 nM
9 | O=C(O[C@H](COCc1ccccc1)[C@@H](O)[C@H](O)[C@@H](COCc1ccccc1)OC(=O)c1ccccc1)c1ccccc1 [Compound 109, 1,6-di-O-benzyl-2,5-di-O-benzoyl-D-mannitol] |  | Ki [3]: 10000 nM
10 | O[C@@H]([C@H](O)[C@@H](COCC1CC1)OCc1ccccc1)[C@@H](COCC1CC1)OCc1ccccc1 [Compound 89, 1,6-di-O-cyclopropylmethyl-2,5-di-O-dibenzyl-D-mannitol] |  | Ki [2]: 16000 nM
11 | CSC(=S)O[C@H](COCc1ccccc1)[C@@H](O)[C@H](O)[C@@H](COCc1ccccc1)OC(=S)SC [Compound 101, 1,6-di-O-benzyl-2,5-di-O-(methylthiothioxo)-D-mannitol] |  | Ki [3]: > 5000 nM
12 | C=CCO[C@H](COCc1ccccc1)[C@@H](O)[C@H](O)[C@@H](COCc1ccccc1)OCC=C [Compound 82, 1,6-di-O-benzyl-2,5-di-O-allyl-D-mannitol] |  | Ki [2]: 11000 nM
13 | O[C@@H]([C@H](O)[C@@H](COCC1CC1)OCC1CC1)[C@@H](COCC1CC1)OCC1CC1 [Compound 79, 1,2,5,6-tetra-O-cyclopropylmethyl-D-mannitol] |  | Ki [2]: 21000 nM
14 | O[C@@H]([C@H](O)[C@@H](COCc1ccccc1F)OCc1ccc(Br)cc1)[C@@H](COCc1ccccc1F)OCc1ccc(Br)cc1 [Compound 34, 1,6-di-O-(2-fluorobenzyl)-2,5-di-O-(4-bromobenzyl)-D-mannitol] | 1900 | 
15 | O[C@@H]([C@H](O)[C@@H](COCc1ccccc1)OCc1cccs1)[C@@H](COCc1ccccc1)OCc1ccc(F)cc1 [Compound 96, 1,6-di-O-benzyl-2-O-(4-fluorobenzyl)-5-O-(2-thienylmethyl)-D-mannitol] |  | Ki [2]: 230 nM
16 | O[C@@H]([C@H](O)[C@@H](COCc1ccccc1)OCc1ccncc1)[C@@H](COCc1ccccc1)OCc1ccncc1 [Compound 86, 1,6-di-O-benzyl-2,5-di-O-(4-pyridylmethyl)-D-mannitol] |  | Ki [2]: > 50000 nM
17 | O[C@@H]([C@H](O)[C@@H](COCC=Cc1ccccc1)OCc1ccccc1)[C@@H](COCC=Cc1ccccc1)OCc1ccccc1 [Compound 94, 1,6-di-O-cinnamyl-2,5-di-O-benzyl-D-mannitol] |  | Ki [2]: > 1000 nM

Further lines, with some results ahead:

Row | Ki [1] [nM] | Compound | also measured
18 | 1200 | OCc1ccc(COC[C@@H](OCc2ccccc2)[C@@H](O)[C@H](O)[C@@H](COCc2ccc(CO)cc2)OCc2ccccc2)cc1 [Compound 48, 1,6-di-(4-hydroxymethylbenzyl)-2,5-dibenzyl-D-mannitol] | 
19 | 890 | O[C@@H]([C@H](O)[C@@H](COCc1ccccc1F)OCc1ccc(F)cc1)[C@@H](COCc1ccccc1)OCc1ccc(F)cc1 [Compound 63, 1-O-benzyl-6-O-(2-fluorobenzyl)-2,5-di-O-(4-fluorobenzyl)-D-mannitol] | 
20 | 26000 | O=C(O)c1ccc(CO[C@H](COCc2ccccc2)[C@@H](O)[C@H](O)[C@@H](COCc2ccccc2)OCc2ccc(C(=O)O)cc2)cc1 [Compound 43, 1,6-di-O-benzyl-2,5-di-O-(4-carboxybenzyl)-D-mannitol] | 
21 | 2100 | O[C@@H]([C@H](O)[C@@H](COCc1ccccc1)OCc1ccc(Br)cc1)[C@@H](COCc1ccccc1)OCc1ccc(Br)cc1 [Compound 18, 1,6-di-O-benzyl, 2,5-di-O-(4-bromobenzyl)-D-mannitol] | 
22 | 2000 | COC(=O)c1ccc(COC[C@@H](OCc2ccccc2)[C@@H](O)[C@H](O)[C@@H](COCc2ccc(C(=O)OC)cc2)OCc2ccccc2)cc1 [Compound 29, 1,6-di-O-(4-carbomethoxybenzyl)-2,5-di-O-benzyl-D-mannitol] | 
23 | 1500 | O[C@@H]([C@H](O)[C@@H](COCc1cccc(F)c1)OCc1ccccc1)[C@@H](COCc1cccc(F)c1)OCc1ccccc1 [Compound 53, 1,6-di-O-(3-fluorobenzyl)-2,5-di-O-(benzyl)-D-mannitol] | 
24 | 400 | Oc1ccc(COC[C@@H](OCc2ccc(F)cc2)[C@@H](O)[C@H](O)[C@@H](COCc2ccc(O)cc2)OCc2ccc(F)cc2)cc1 [Compound 4, 1,6-di-O-(4-hydroxybenzyl)-2,5-di-O-(4-fluorobenzyl)-D-mannitol] | 
25 | 27000 | NCc1ccc(CO[C@H](COCc2ccccc2)[C@@H](O)[C@H](O)[C@@H](COCc2ccccc2)OCc2ccc(CN)cc2)cc1 [Compound 46, 1,6-di-O-benzyl-2,5-di-O-(4-aminomethylbenzyl)-D-mannitol] | 
26 | < 1000 | O[C@@H]([C@H](O)[C@@H](COCc1ccccc1)OCc1ccc(OCc2ccccc2)cc1)[C@@H](COCc1ccccc1)OCc1ccc(OCc2ccccc2)cc1 [Compound 6, 1,6-di-O-benzyl-2,5-di-O-(4-benzyloxybenzyl)-D-mannitol] | 
27 | > 2000 | O[C@@H]([C@H](O)[C@@H](COCc1ccc(C(F)(F)F)cc1)OCc1ccccc1)[C@@H](COCc1ccc(C(F)(F)F)cc1)OCc1ccccc1 [Compound 27, 1,6-di-O-(4-trifluoromethylbenzyl)-2,5-di-O-benzyl-D-mannitol] | 
28 | 400 | O[C@@H]([C@H](O)[C@@H](COCc1ccccc1F)OCc1ccccc1)[C@@H](COCc1ccccc1)OCc1ccccc1 [Compound 10, 1,2,5-tri-O-benzyl-6-O-(2-fluorobenzyl)-D-mannitol] | 
29 | 23000 | O=[N+]([O-])c1ccc(CO[C@H](COCc2ccccc2)[C@@H](O)[C@H](O)[C@@H](COCc2ccccc2)OCc2ccccc2)cc1 [Compound 61] | 
30 | 28000 | O=Cc1ccc(CO[C@H](COCc2ccccc2)[C@@H](O)[C@H](O)[C@@H](COCc2ccccc2)OCc2ccc(C=O)cc2)cc1 [Compound 49, 1,6-di-O-benzyl-2,5-di-O-(4-formylbenzyl)-D-mannitol] | 
31 | > 3000 | O[C@@H]([C@H](O)[C@@H](COCc1ccc(Br)cc1)OCc1ccccc1)[C@@H](COCc1ccc(Br)cc1)OCc1ccccc1 [Compound 54, 1,6-di-O-(4-bromobenzyl)-2,5-di-O-benzyl-D-mannitol] | 
32 | 700 | O[C@@H]([C@H](O)[C@@H](COCc1ccccc1)OCc1ccc(F)cc1)[C@@H](COCc1ccccc1)OCc1ccc(F)cc1 [Compound 16, 1,6-di-O-benzyl-2,5-di-O-(4-fluorobenzyl)-D-mannitol] | 
33 | 3700 | Cc1ccc(CO[C@H](COCc2ccccc2)[C@@H](O)[C@H](O)[C@@H](COCc2ccccc2)OCc2ccc(C)cc2)cc1 [Compound 24, 1,6-di-O-benzyl-2,5-di-O-(4-methylbenzyl)-D-mannitol] | 
34 | 5000 | O=C(O)c1ccc(COC[C@@H](OCc2ccccc2)[C@@H](O)[C@H](O)[C@@H](COCc2ccc(C(=O)O)cc2)OCc2ccccc2)cc1 [Compound 51, 1,6-di-O-(4-carboxybenzyl)-2,5-di-O-benzyl-D-mannitol] | 
